The experiment concerns matured human monocyte-derived DC. As to the kind of experiment: Antigen uptake assay, matured human DC. Format: cell-based. The settings on record: inhibitor pretreatment before B7-DC XAb. As to the method:
FIGS. 2A to 2G are a series of pictures showing that a kinase activated pathway regulates antibody-induced antigen uptake by matured DC. Matured human monocyte-derived DC were treated with the MTAb B7-DC XAb for varying time periods and evaluated for the phosphorylation status of select signaling pathway intermediates by immunoprecipitation with DAP12 (MC457), Syk (4D10), and PLCγ1 (MC490) reactive antibodies followed by western blot analysis using the phosphotyrosine reactive antibody 4G10 as a probe (FIGS. 2A-2C). Samples of the cells blocked with indicated concentration of piceatannol (FIG. 2D) or with […] of piceatannol (FIG. 2E) were analyzed for phosphorylation of Syk (FIG. 2D) and PLCγ1 (FIG. 2E). To investigate the functional importance of these signaling intermediates in the regulation of antigen uptake by matured DC activated with B7-DC XAb, varying concentrations of pharmacologic inhibitors were used to block the activity of p72Syk (piceatannol) and PLCγ1 (U73122) (FIGS. 2F and 2G, respectively). Antigen uptake was assessed by pulsing cultures with FITC-conjugated ovalbumin and measuring intracellular fluorescence 16 hours later in CD11c positive cells by flow cytometry.
Human DC were generated from peripheral blood CD14^+ monocytes by incubation in GM-CSF and IL-4 for five days. […] All cultures were pulsed with OVA-FITC at the time of treatment with IgM antibodies, and […] OVA-FITC was assessed 24 hours later by flow cytometry.
FIGS. 4A and 4B are a series of plots showing the effects of kinase inhibitors on OVA-FITC uptake by matured human DC, as determined by flow cytometry. […] All cells were pulsed with OVA-FITC at the time of treatment with IgM antibody, and CD11c+ cells were analyzed for OVA-FITC uptake 24 hours later by flow cytometry. […]
Antigen uptake experiments were carried out as described previously (Radhakrishnan et al. (2005) Proc. Natl. Acad. Sci. U.S.A. 102:11438-11443). […] The matured cells were incubated with ovalbumin labeled with FITC or APC and control antibody or B7-DC XAb for two hours, washed and analyzed by FACSCALIBUR™ (Becton Dickinson). […]

In the case of `COc1ccc2c(c1)CC[C@@H]1[C@@H]2CC[C@]2(C)[C@@H](NCCCCCCN3C(=O)C=CC3=O)CC[C@@H]12` [U73122], the “inhibition of B7-DC XAb-induced antigen uptake by matured DC” value is “inhibited uptake of tagged proteins by matured DC in a dose responsive manner”. On to `CC(C)(C)n1nc(-c2ccc(Cl)cc2)c2c(N)ncnc21` [PP2], for which the “inhibition of B7-DC XAb-induced antigen uptake by matured DC” value was “inhibition of antigen uptake”.

(Values after patent publication US11274131B2, “IgM-mediated receptor clustering and cell modulation” (MAYO FOUNDATION FOR MEDICAL EDUCATION AND RESEARCH, priority 2007, dated 2022).)
